These are literature values, as cited in US6746695B1, “Pharmaceutical preparations of bioactive substances extracted from natural sources” (Armadillo Pharmaceuticals, Inc., priority 1998, dated 2004).

For data set [1] the following is noted: mice.
For data set [2] the following is noted: chickens.
For data set [3] the following is noted: rats.
The conditions of data set [4]: Dogs.
Data set [5] concerns the target T1, prostoglandin synthetase (Bos taurus, UniProt O62664).
T1 construct: prostoglandin synthetase prepared from bovine seminal vesicles; from tissue; host or cells: bovine seminal vesicles
T1 sequence (O62664 25-600): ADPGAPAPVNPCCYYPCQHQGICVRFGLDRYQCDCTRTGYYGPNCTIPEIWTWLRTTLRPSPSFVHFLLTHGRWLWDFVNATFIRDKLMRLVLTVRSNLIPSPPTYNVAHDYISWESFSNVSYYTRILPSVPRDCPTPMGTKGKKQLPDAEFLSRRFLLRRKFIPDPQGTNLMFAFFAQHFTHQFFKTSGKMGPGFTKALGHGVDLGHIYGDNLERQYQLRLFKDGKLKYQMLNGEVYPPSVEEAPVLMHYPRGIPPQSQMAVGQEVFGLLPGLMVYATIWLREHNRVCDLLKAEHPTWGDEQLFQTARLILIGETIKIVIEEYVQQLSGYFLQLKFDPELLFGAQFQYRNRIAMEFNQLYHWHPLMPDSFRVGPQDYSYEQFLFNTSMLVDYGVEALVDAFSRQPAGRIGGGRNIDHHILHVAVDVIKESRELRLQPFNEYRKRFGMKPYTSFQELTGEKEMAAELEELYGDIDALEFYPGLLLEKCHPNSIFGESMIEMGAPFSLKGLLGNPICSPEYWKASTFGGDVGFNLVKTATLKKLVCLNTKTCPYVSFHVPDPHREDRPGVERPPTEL
Conditions: enzyme prepared from bovine seminal vesicles; compared with aspirin.

Read-outs that look alike come from different tables or passages of the source.

As for `CO[C@H]1[C@@H](OC)C[C@@H](O[C@@H]2O[C@H](CO)[C@@H](O)[C@H](O)[C@H]2O)/C(=C\C#N)[C@@H]1O` [Simmondsin], the food intake entry in data set [1], in data set [2] and in data set [3] was “reducing food intake” throughout. For the same compound, in data set [4], the weight reduction result is “useful weight reduction agent”.
Consider `COc1cc2c(cc1OC)[C@@H]1C[C@H](C[C@H]3CCCCN31)OC(=O)/C=C\c1ccc(O)c-2c1` [cryogenine], for which the “potency as inhibitor of prostoglandin synthetase relative to aspirin” value in data set [5] is given as “more than twice as potent as aspirin”.
`COc1ccc2c(c1OC)-c1cc(ccc1O)/C=C\C(=O)O[C@H]1C[C@@H]3CCCCC3[C@H]2C1` (stereo partly drawn) [nesodine]: the “potency as inhibitor of prostoglandin synthetase relative to aspirin” value in data set [5] is reported as “more than twice as potent as aspirin”.
